PubChem BioAssay (NCI)
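Five concentrations, 48 hours, 96-well plates. GI50 marks 50% less growth. At the TGI there is no net growth.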

Tests used:
Experiment in all cases: NCI tumour cell line growth inhibition, 48 h
786-0 renal = system: 786-0 renal
A498 renal = system: A498 renal
IGROV1 ovarian = system: IGROV1 ovarian
K-562 leukemia = system: K-562 leukemia
RPMI-8226 leukemia = system: RPMI-8226 leukemia
RXF 393 renal = system: RXF 393 renal
SF-539 CNS = system: SF-539 CNS
SW-620 colon = system: SW-620 colon
UACC-257 melanoma = system: UACC-257 melanoma

SMILES | TGI (786-0 renal) [µM] | TGI (A498 renal) [µM] | TGI (IGROV1 ovarian) [µM] | TGI (K-562 leukemia) [µM] | TGI (RPMI-8226 leukemia) [µM] | TGI (RXF 393 renal) [µM] | TGI (SF-539 CNS) [µM] | TGI (SW-620 colon) [µM] | TGI (UACC-257 melanoma) [µM] | GI50 (786-0 renal) [µM] | GI50 (A498 renal) [µM] | GI50 (K-562 leukemia) [µM] | GI50 (RPMI-8226 leukemia) [µM] | GI50 (RXF 393 renal) [µM] | GI50 (SF-539 CNS) [µM] | GI50 (SW-620 colon) [µM] | GI50 (UACC-257 melanoma) [µM]
CN(C)/C=N/c1nc2c(ncn2C2OC(CO)C(O)C2O)c(=O)[nH]1 (stereo not drawn) | > 100 | > 100 | > 100 | > 100 | > 100 | > 100 | > 100 | > 100 | > 100 |  |  |  |  |  |  |  | 
COc1ccc2c3c([nH]c2c1[N+](=O)[O-])C(C)=NCC3 | > 100 | > 100 | 77.2 | > 100 | > 100 | > 100 | > 100 | > 100 | > 100 |  |  |  |  |  |  |  | 
Cn1c2c(c3ccccc31)C1CCCCCCC1C1C(=O)OC(=O)C21 (stereo not drawn) | > 100 | > 100 | 73.8 | 75.3 | 61.2 | 49 | > 100 | > 100 |  |  |  |  |  |  |  |  | 
OC[C@H]1C[C@](O)(c2ccc(Cl)cc2)[C@@H](c2ccc(Cl)cc2)O1 | 55.9 | 57.3 |  | 76.5 | 34.9 | 39.7 | 53.8 | > 100 | 44.7 | 22.4 | 24.6 | 24.9 | 13.7 | 20.8 | 23.3 | 27.3 | 21.2
CC1=NNC(=O)C2CCC(=O)N12 (stereo not drawn) | > 100 | > 100 | > 100 | > 100 | > 100 | > 100 | > 100 | > 100 | > 100 |  |  |  |  |  |  |  | 
COC(=O)c1cc2c(s1)C(=O)c1ccccc1-2 | > 100 | > 100 | > 100 | > 100 |  | > 100 | > 100 | > 100 | > 100 |  |  |  |  |  |  |  | 
O=[N+]([O-])c1ccc(C2=Nn3cnnc3SC2)o1 | 32.1 | 32.3 |  | 42.3 | 42.5 | 32.9 | 36.3 | 25.3 | 29.6 |  |  |  |  |  |  |  | 
O=C(CCn1[nH]c(=O)c(Cl)c(Cl)c1=O)NO | > 100 | > 100 | > 100 | > 100 | > 100 | > 100 | > 100 | > 100 | > 100 |  |  |  |  |  |  |  | 
[N-]=[N+]=NC12CC3C4CC5CC3C(C1)C(C5)C4C2 | > 100 | > 100 | > 100 | > 100 | > 100 |  | > 100 | > 100 | > 100 |  |  |  |  |  |  |  | 
CC(C)(C)CC(C)(C)c1cc2c(O)c(c1)Cc1cc(C(C)(C)CC(C)(C)C)cc(c1O)Cc1cc(C(C)(C)CC(C)(C)C)cc(c1O)Cc1cc(C(C)(C)CC(C)(C)C)cc(c1O)C2 | > 100 |  | > 100 | > 100 | > 100 | > 100 | > 100 | > 100 | > 100 |  |  |  |  |  |  |  | 
CN(C)c1ccc(C(C=C2c3ccccc3Sc3ccccc32)=C(C#N)C#N)cc1 | > 100 | > 100 | > 100 | > 100 | > 100 | > 100 | > 100 | > 100 | > 100 |  |  |  |  |  |  |  | 
COc1ccc(C(=O)C(c2ccc(OC)cc2)C2(O)C(=O)Nc3ccc([N+](=O)[O-])cc32)cc1 (stereo not drawn) | > 100 | 31.5 | > 100 | > 100 | > 100 | > 100 | 24 | > 100 | > 100 |  |  |  |  |  |  |  | 
CCOc1ccccc1C=C1c2ccccc2C(=O)c2ccccc21 | 18 | > 100 | > 100 | > 100 | 23.2 | 5.96 | 5.22 | 41.4 | 47 |  |  |  |  |  |  |  | 
CC(C)c1ccccc1NC(=O)CCc1n[nH]c(=S)o1 | > 100 | > 100 | > 100 | > 73.1 | > 72.1 | > 100 | > 100 | > 56 | > 100 |  |  |  |  |  |  |  | 
N#Cc1nc(Nc2cccc3ccccc23)sc1N | > 100 |  | > 100 | > 100 | 72 |  | 76.6 | > 100 | 41.1 |  |  |  |  |  |  |  | 
COc1cc(C(Cc2ccccc2)NC(C)=O)oc(=O)c1 (stereo not drawn) | > 100 | > 100 | > 100 | > 100 | > 100 | > 100 |  | > 100 | > 100 |  |  |  |  |  |  |  | 
COc1cccc(/C=C/c2cc(OC)c(OC)c(OC)c2)c1 | > 100 | > 100 | > 100 | > 100 | > 100 |  | > 100 | > 100 | > 100 |  |  |  |  |  |  |  | 
Cc1cc(CC(O)c2ccc(Cl)c(Cl)c2)nc(=O)[nH]1 (stereo not drawn) | 38.7 | > 100 |  | > 100 | > 100 |  |  | > 100 | > 100 |  |  |  |  |  |  |  | 
NNC(=S)N/N=C(\CC1OC(=O)c2ccccc21)c1ccccc1O (stereo not drawn) | > 100 | 95.4 | > 100 | > 100 |  | 77.3 | 43.7 | > 100 | > 100 |  |  |  |  |  |  |  | 
CN(C)c1nc2ccccc2[nH]1 | > 100 |  | > 100 | > 100 | > 100 | > 100 | > 100 | > 100 | > 100 |  |  |  |  |  |  |  | 
